{"source": "ChEMBL document CHEMBL1151802", "about": "“Calyciphyllines N-P, alkaloids from Daphniphyllum calycinum” (J Nat Prod, 2009)", "format_in_all_cases": "functional, cell-based", "key": {"KB": {"test_system": "KB", "assay": "Cytotoxicity against human KB cells"}, "P388": {"test_system": "P388", "assay": "Cytotoxicity against mouse P388 cells"}, "L1210": {"test_system": "L1210", "assay": "Cytotoxicity against mouse L1210 cells"}}, "data": [{"smiles": "COC(=O)[C@@H]1C[C@]23C4=NC[C@@H](C)[C@]45CC[C@@]2(C)[C@H](CCC2=C3[C@@H]1CC2)[C@H]5O", "note": "[CALYCIPHYLLINE N]", "values": [{"measurement": "IC50", "setting": "KB", "result": "> 5", "unit": "µg/mL"}, {"measurement": "IC50", "setting": "P388", "result": "> 55", "unit": "µg/mL"}, {"measurement": "IC50", "setting": "L1210", "result": "> 5", "unit": "µg/mL"}]}, {"smiles": "COC(=O)CC[C@@]12[C@@H]3NC4C([C@@H](O)C[C@@]45CCC[C@H]51)[C@]2(C)CC[C@@H]3C(C)C", "note": "[CALYCIPHYLLINE O]", "values": [{"measurement": "IC50", "setting": "KB", "result": "> 5", "unit": "µg/mL"}, {"measurement": "IC50", "setting": "P388", "result": "> 55", "unit": "µg/mL"}, {"measurement": "IC50", "setting": "L1210", "result": "> 5", "unit": "µg/mL"}]}]}
